In data set [1] the test system is Escherichia coli (ATCC 25922). The conditions noted are these: ATCC 25922.
For a further data set, the system named is human red blood cells. On the set-up: unit not given beside the values.
The test system of data set [2] is Methicillin-resistant Staphylococcus aureus MRSA (ATCC BAA-1556). The conditions noted are these: ATCC BAA-1556.
Data set [3] has as its system Clostridium difficile (NAP1/027). The data set can be described thus: MIC determination, broth microdilution (CLSI). It counts as cell-based. (Dilution methods test growth across graded concentrations, often in twofold steps.)
The test system of data set [4] is Pseudomonas aeruginosa (ATCC 27883). The conditions noted are these: ATCC 27883.
Data set [5] relates to Clostridium difficile (ATCC 700057). The data set can be described thus: MIC determination, broth microdilution (CLSI). The class given is cell-based.
The subject of a further data set is S. aureus ATCC 29213. The conditions noted are these: ATCC 29213.
Data set [6] has as its system Staphylococcus aureus ATCC 33592 (MRSA) biofilm.
Description: (§3) Bacteria. The bacterial strains employed in these assays were obtained from the American Type Culture Collection (ATCC). Each strain was propagated as recommended by the ATCC and each strain was stored as a frozen glycerol stock at −80° C.
(§4) Bacterial Propagation. […] Following the incubation, the culture was diluted to an optical density 625 nm (OD625) of 0.1 in cation adjusted Mueller Hinton Broth (CAMHB), which is equivalent to 1×10^8 CFU/mL. The culture was further diluted to 1×10^6 CFU/mL which was used for the assay.
(§5) Determination of the Temporal Effects of SPL7013 Addition to Inhibit Biofilm Formation. Each strain of bacteria was adjusted to a concentration of 1×10^6 CFU/mL and added to a 96-well flat-bottomed plate in a volume of 100 mL. One-hundred microliters (100 mL) of each compound at 10 concentrations was added in triplicate wells. The cultures were incubated for 24 hours at 37° C. under the appropriate growth conditions for each organism. Following the incubation, the media was removed, and the formed biofilms were fixed for 1 hour at 60° C. Two-hundred microliters (200 mL) of 0.06% crystal violet was added to the wells for 5 to 10 minutes and the wells were then gently washed three times with deionized H2O to remove the crystal violet. Following crystal violet staining 200 mL of 70% ethanol was added to the wells.
In data set [7] the test system is P. aeruginosa strain ATCC 47085 biofilm.
Description: as §3, §4, §5
The subject of data set [8] is Klebsiella pneumoniae (ATCC BAA-1705). It counts as cell-based. How it is done:
(§1) All bacteria pathogens tested clinically reported multi-drug resistant strains. The antibacterial activity was tested against Gram-negative strains namely; Pseudomonas aeruginosa (PSA), Klebsiella pneumoniae (KPC), Escherichia coli (E. coli) and Gram-positive Methicillin-resistant Staphylococcus aureus (MRSA). The minimum inhibitory concentration (MIC) is the lowest concentration of the antibiotic that inhibits microbial growths. MIC is determined by visual inspection or use of spectrophotometer plate reader to determine media turbidity. On the other hand, the minimum bactericidal concentration (MBC) is the lowest concentration that kills […] of bacterial growth. Cytotoxicity of peptides in the hepatic cell line, human skin fibroblast cell line, heart/myocardium cells, and human lung fibroblast cells is shown in FIGS. 36-46). […] (IFX-315)-Au-NP with antibiotics are shown in FIGS. 49-58 when the gold nanoparticles are formed by the peptide followed by addition of the antibiotic. […] (IFX-301) with antibiotics (1:1 ratio) first and then used in the synthesis of Au-NP in antibacterial activities is shown in FIGS. 59-68.
(§2) The MBC is identified by determining the lowest concentration of antibacterial agent that reduces the viability (concentration of peptides necessary to achieve a bactericidal effect) of the initial bacterial inoculum by ≥99.9%.

Data set [9] relates to Methicillin-resistant Staphylococcus aureus MRSA (ATCC BAA-1556). The class given is cell-based. How it is done:
as §1, §2

The test system of data set [10] is Escherichia coli (ATCC 25922). The class given is cell-based. How it is done:
as §1, §2

The subject of data set [11] is Pseudomonas aeruginosa (ATCC 27883). The class given is cell-based. The conditions noted are these: Table 22. How it is done: as §1, §2
Another data set deals with E. coli. The conditions noted are these: cited from earlier work.
In another data set the test system is MRSA. Description: In vivo Galleria Mellonella Assay (MRSA infection). The settings on record: MRSA-infected G. mellonella, after one week.
The test system of data set [12] is Pseudomonas aeruginosa (PA01). The settings on record: previously shown (Oh et al. 2014), listed as [W4R4]; cited from earlier work.
Data set [13] has as its system Methicillin-Resistant Staphylococcus aureus (MRSA). The settings on record: previously shown (Oh et al. 2014), listed as [W4R4]; cited from earlier work.
Data set [14] shares this test system. The conditions noted are these: cited from earlier work.
Data set [15] deals with Klebsiella pneumoniae (ATCC BAA-1705). The settings on record: ATCC BAA-1705.
Data set [16] relates to Methicillin-resistant Staphylococcus aureus MRSA (ATCC BAA-1556). The data set can be described thus: microbe, parasite or virus in culture. The settings on record: ATCCBAA1556|MRSA, 24 h, read-out: MRSA (ATCC BAA-1556) MIC, Table 31, [R5W4] (IFX-301), antibiotics alone and PHY-MIX (1:1 w/w).
The test system of data set [17] is Escherichia coli (E. Coli, ATCC 25922). The settings on record: Escherichia coli (ATCC 25922), antibiotic alone.
The subject of data set [18] is Pseudomonas aeruginosa (PSA, ATCC 27883). Description: Synergy checkerboard assay (FIC index). The class given is cell-based. The settings on record: Pseudomonas aeruginosa (ATCC 27883), antibiotic alone.
Data set [19] shares this test system. The data set can be described thus: microbe, parasite or virus in culture. The conditions noted are these: ATCC27883, 24 h.
In a further data set the test system is MRSA (ATCC BAA-1556). The conditions noted are these: MRSA (ATCC BAA-1556), antibiotic alone.
The test system of data set [20] is Escherichia coli (E. Coli, ATCC 25922). Description: microbe, parasite or virus in culture. The conditions noted are these: ATCC25922, 24 h, read-out: Escherichia coli (ATCC 25922) MIC, Table 31, [R5W4] (IFX-301), antibiotics alone and PHY-MIX (1:1 w/w).

Consider three molecules from US20220289794A1, “SYNTHETIC ANTIMICROBIAL PEPTIDES” (priority 2019, published 2022).

In brackets after ≈: the same amount, converted by molar mass. Several values for one entry are separate records, joined by “and”; a condition that tells them apart may be missing. Equal values may be shown once. Read-outs that look alike come from different tables or passages of the source. Non-standard residues stand in square brackets, D forms with d. Residues, ends and D or L forms follow the SMILES beside them. 2Nal = N[C@@H](Cc1ccc2ccccc2c1)C(=O)O Some results are limits rather than exact numbers.

In the case of `N=C(N)NCCC[C@H](NC(=O)[C@H](CCCNC(=N)N)NC(=O)[C@H](CCCNC(=N)N)NC(=O)[C@@H](N)CCCNC(=N)N)C(=O)N[C@@H](Cc1ccc2ccccc2c1)C(=O)N[C@@H](Cc1ccc2ccccc2c1)C(=O)N[C@@H](Cc1c[nH]c2ccccc12)C(=O)O` [IFX-031-1, NH2-R-R-R-R-NaI-NaI-Trp-OH] (H-RRRR[2Nal][2Nal]W-OH), the “MIC E. coli ATCC 25922” value in [1] came to 25 µg/mL (≈ 20.4 µM). The molecule also came in with an HC50 in the data set with human red blood cells of 450. Also, the “MIC MRSA ATCC BAA-1556” value in data set [2] turned out to be 6.2 µg/mL (≈ 5.07 µM). For the same molecule, the MIC90 in [3] and in data set [5] was 25 µg/mL (≈ 20.4 µM) each time. Further, the MIC95 is above 50 µg/mL in data set [3] and 25 µg/mL (≈ 20.4 µM) in data set [5]. The MIC99 in data set [3] and in data set [5] was 25 µg/mL (≈ 20.4 µM) in each case. Moreover, the “MIC P. aeruginosa ATCC 27883” value in data set [4] turned out to be 25 µg/mL (≈ 20.4 µM). Moreover, the “MIC S. aureus ATCC 29213” value against S. aureus ATCC 29213 worked out at 6.2 µg/mL (≈ 5.07 µM). Also, the “ability to prevent biofilm formation” value in [6] and in [7] was “able to inhibit biofilm formation” in each case.
For `N=C(N)NCCC[C@@H]1NC(=O)[C@H](CCCNC(=N)N)NC(=O)[C@H](CCCNC(=N)N)NC(=O)[C@H](Cc2c[nH]c3ccccc23)NC(=O)[C@H](Cc2c[nH]c3ccccc23)NC(=O)[C@H](Cc2c[nH]c3ccccc23)NC(=O)[C@H](Cc2c[nH]c3ccccc23)NC(=O)[C@H](CCCNC(=N)N)NC1=O` [[R4W4], reference compound] (cyclo(RRRRWWWW)), the “KPC (ATCC BAA-1705) MBC” value in data set [8] stood at 64 µg/mL. Also, the “MRSA (ATCC BAA-1556) MBC” value in data set [9] was 32 µg/mL. In [10], the “E. coli (ATCC 25922) MBC” value turned out to be 32 µg/mL. Further, the “PSA (ATCC 27883) MBC” value in [11] turned out to be 128 µg/mL. Besides, the “E. coli (ATCC 25922) MIC” value in data set [1] stood at 16 µg/mL. Also, the “interaction with tetracycline in time-kill assays” value (with E. coli; in [14]) was “synergistically” each time. Also, the larvae killed entry in the data set with MRSA is “all”. Also, the “MRSA (ATCC BAA-1556) MIC” value in [2] was 4 µg/mL. Besides, the MIC in data set [12] is 42.8 μg/mL and 31.3 μM; in [13], 2.67 μg/mL and 1.95 μM. Moreover, the “PSA (ATCC 27883 MIC)” value in data set [4] turned out to be 64 µg/mL. For the same molecule, the “KPC (ATCC BAA-1705) MIC” value in data set [15] is 32 µg/mL.
Take `CN(C)[C@@H]1C(O)=C(C(N)=O)C(=O)[C@@]2(O)C(O)=C3C(=O)c4c(O)cccc4[C@@](C)(O)[C@H]3C[C@@H]12` [tetracycline, reference compound]: the MIC came out at 0.25 µg/mL (≈ 0.563 µM) in data set [16]; 32 µg/mL (≈ 72 µM) in data set [19] (read-out: Pseudomonas aeruginosa (ATCC 27883) MIC, Table 29, [R6W4] (IFX-318), antibiotics alone and PHY-MIX (1:1 w/w)); 32 µg/mL (≈ 72 µM) in [19] (read-out: Pseudomonas aeruginosa (ATCC 27883) MIC, Table 31, [R5W4] (IFX-301), antibiotics alone and PHY-MIX (1:1 w/w)); 8 µg/mL (≈ 18 µM) in data set [20]. Moreover, the MIC of antibiotic in [17] worked out at 8 µg/mL; in data set [17] (Table 25), 8 µg/mL; in [17] (Table 26), 8 µg/mL; in data set [18] it was 32 µg/mL; in [18] (Table 26), 32 µg/mL; in the data set with MRSA (ATCC BAA-1556), 0.25 µg/mL. Also, the MIC of antibiotic in the data set on MRSA (ATCC BAA-1556) (Table 25) was 0.250 µg/mL. This molecule yielded a larvae killed in the data set on MRSA of 56.3%. In data set [18] (Table 27), the antibiotic MIC is 32 µg/mL.

By MIC90 is commonly meant an inhibitory concentration at the 90% level, which refers to growth in some studies and to a panel of isolates in others. In general, MIC99 refers to the lowest concentration that inhibits either 99% of growth or 99% of the strains tested, depending on the study.
